Laboratory results from patent US10844051B2, “Substituted oxazoles for the treatment of cancer” (THE ROYAL INSTITUTION FOR THE ADCANCEMENT OF …, priority 2015, dated 2020).
pIC50: −log10 of the molar value. Entries after “also recorded” stand apart in the source; their conditions may differ.

How the values were obtained:
human GATA3 = molecular target: T1, human GATA3 (Homo sapiens, UniProt P23771); experiment: GATA3-dependent reporter assay in IHH cells; type: cell-based; conditions: 48 hours
T1 construct: expressed in transfected cells; host or cells: IHH
Experimental: The IHH cells were transiently transfected with empty vector (for the NT) or human GATA3-expressing plasmid as well as pRL-TK (internal control) and GATA-Luc reporter plasmids. Cells were exposed to DMSO vehicle or compounds for 48 hours. Experiments were done in triplicate.

[1] = system: H23 KRAS-mutant NSCLC cells; experiment: MTT assay, H23; type: cell-based; conditions: KRAS-mutant NSCLC, 72 hours
Experimental: (§1) FIG. 2.7 Compound 673 is cytotoxic in KRAS-mutant NSCLC cells (A549 and H23), but is not toxic the KRAS wild-type NSCLC cells (H322). Cells were exposed to vehicle or compounds (μM) for 72 hours. Viable cells were evaluated by MTT assays.
Panc 10.05, H23 and HCT-116 cells express endogenous KRAS 12D, 12C and 13D mutants, respectively. Cells were exposed to DMSO vehicle or compounds at designated doses for 72 hours. Experiments were done in triplicate.

[2] = system: fusion protein IRF3DBD-GATA2NTD; experiment: ISRE-luc reporter assay in PC3 cells, IRF3DBD-GATA2NTD; type: cell-based; conditions: 5 μM
human STING (hSTING) = molecular target: T2, human STING (hSTING) (Homo sapiens, UniProt Q86WV6); experiment: hSTING ISRE-luc reporter assay in 293T cells; type: cell-based; conditions: 24 hours
T2 construct: expressed in transfected cells; host or cells: 293T
Experimental: ISRE-luc (reporter), pRL-TK (internal control) and hSTING-expressing plasmids were transiently transfected into 293T cells. Cells were exposed to DMSO vehicle control or compounds for 24 hours. Experiments were done in triplicate.

wild-type IRF3 = molecular target: T3, wild-type IRF3 (Homo sapiens, UniProt Q14653); experiment: ISRE-luc reporter assay in PC3 cells, wild-type IRF3; type: cell-based; conditions: 5 μM
T3 construct: host or cells: PC3

LNCaP-GATA2 cells = experiment: BrdU cell proliferation assay in LNCaP-GATA2 cells, combination with bicalutamide; type: cell-based; conditions: equi-molar combination, 48 hours
Experimental: (§2) (A) PSA-luc reporter assay in LNCaP-GATA2 cells, which were exposed to DMSO vehicle, BIC, 673, or equi-molar combination of Bic and 673 for 72 hours in FBS medium. RLU, relative luciferase unit; (B) BrdU Cell Proliferation Assay (Assay Kit #6813, Cell Signaling Tech.). LNCaP-GATA2 cells were exposed to DMSO vehicle, Bic, 673 or equi-molar combination of Bic and 673 for 48 hours. In the last 8 hours, 10 μM BrdU was added to the plate. **p<0.001, ***p<0.001 when compared with BIC at the same doses; #p<0.05, ##p<0.001 when compared with 673 at the same doses.

human GATA2 = molecular target: T4, human GATA2 (Homo sapiens, UniProt P23769); experiment: GATA2-dependent reporter assay in IHH cells; type: cell-based; conditions: GATA-Luc reporter, 48 h
T4 construct: expressed in transfected cells; host or cells: IHH
T4 sequence (P23769 1-480): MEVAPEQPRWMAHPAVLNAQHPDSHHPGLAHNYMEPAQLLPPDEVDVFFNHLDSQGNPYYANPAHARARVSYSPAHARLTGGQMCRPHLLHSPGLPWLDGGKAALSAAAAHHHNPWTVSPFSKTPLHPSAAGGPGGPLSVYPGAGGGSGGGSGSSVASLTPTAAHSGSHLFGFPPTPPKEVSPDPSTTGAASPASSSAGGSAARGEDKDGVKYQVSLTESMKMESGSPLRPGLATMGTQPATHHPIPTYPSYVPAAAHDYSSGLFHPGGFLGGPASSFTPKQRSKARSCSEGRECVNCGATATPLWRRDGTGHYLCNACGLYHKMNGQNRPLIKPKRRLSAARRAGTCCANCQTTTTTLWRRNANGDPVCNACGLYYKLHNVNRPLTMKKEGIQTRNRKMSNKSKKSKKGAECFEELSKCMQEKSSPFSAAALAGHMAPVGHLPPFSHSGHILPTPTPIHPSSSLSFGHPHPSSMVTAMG
Experimental: K7174 is a known GATA2 inhibitor. The IHH cells were transiently transfected with empty vector (for the NT) or human GATA2-expressing plasmid as well as pRL-TK (internal control) and GATA-Luc reporter plasmids. Cells were exposed to DMSO vehicle or compounds for 48 h. Experiments were in triplicate.

[3] = system: A549 KRAS-mutant NSCLC cells; experiment: MTT assay, A549; type: cell-based; conditions: 72 hours
Experimental: as §1

[4] = system: AR signaling in LNCaP-GATA2, HP-LNCaP, C4-2B and 22Rv1 cells; experiment: Western blot, AR signaling in LNCaP-GATA2 and CRPC cells; type: cell-based; conditions: LNCaP-GATA2 in FBS medium, 22Rv1 in CSS medium, 72 hours
Experimental: FIG. 2.11 By breaking AR-GATA2 feedback loop, compound 673 suppresses the AR signaling in CRPC cells. […] Cells were exposed to DMSO vehicle, BIC, 673 or K7174 at designated doses (μM) for 72 hours.

ERG = molecular target: T5, ERG (Homo sapiens, UniProt P11308); experiment: ERG-dependent reporter assay in HEK293 cells; type: cell-based; set-up: expressed in transfected cells; host or cells: HEK293; conditions: PUx3-Luc reporter, 48 hours, designated doses
T5 sequence (P11308 1-486 isoform P11308-3): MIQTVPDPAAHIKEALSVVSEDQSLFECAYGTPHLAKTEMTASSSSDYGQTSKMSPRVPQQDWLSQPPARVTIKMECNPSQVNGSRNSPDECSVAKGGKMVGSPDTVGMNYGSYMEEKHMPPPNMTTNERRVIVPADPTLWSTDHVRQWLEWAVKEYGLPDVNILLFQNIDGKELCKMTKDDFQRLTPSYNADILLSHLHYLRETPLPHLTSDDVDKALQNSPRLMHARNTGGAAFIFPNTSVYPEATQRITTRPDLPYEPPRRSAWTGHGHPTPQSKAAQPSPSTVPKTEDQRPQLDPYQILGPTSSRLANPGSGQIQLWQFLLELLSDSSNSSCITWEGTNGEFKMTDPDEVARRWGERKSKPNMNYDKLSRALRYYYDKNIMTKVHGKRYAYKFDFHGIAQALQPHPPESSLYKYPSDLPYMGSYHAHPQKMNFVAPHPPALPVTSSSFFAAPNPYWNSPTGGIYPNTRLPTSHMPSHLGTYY
Experimental: HEK293 cells were transiently transfected with empty vector (for the NT) or ERG-expressing plasmid as well as pRL-TK (internal control) and PUx3-Luc reporter. Cells were then exposed to DMSO vehicle or compounds at designated doses for 48 hours. Experiments were done in triplicate.

[5] = system: GATA family members (GATA1, GATA2, GATA3, GATA4); experiment: GATA1-, GATA2-, GATA3- and GATA4-dependent reporter assays in IHH cells; type: cell-based; conditions: CSS medium, 48 hours
Experimental: In contrast, K7174 is not selective. GATA1-, GATA2-, GATA3- and GATA4-dependent reporter assays were done in IHH cells which were exposed to DMSO vehicle, compound 673 or K7174 (μM) in CSS medium for 48 hours.

[6] = system: H322 KRAS wild-type NSCLC cells; experiment: MTT assay, H322; type: cell-based; conditions: 72 hours
Experimental: as §1

[7] = molecular target: T6, recombinant protein of human GATA2 (Homo sapiens, UniProt P23769); experiment: SPR analysis on amine-coupled GATA2; type: binding
T6 sequence (P23769 1-480): T4 sequence (P23769 1-480)
Source text: In embodiments of the invention, the androgen-bound AR is regressing GATA2 expression and inhibition of AR via castration or use of antiandrogen releases such expression. […] Overexpression of GATA2 confers resistance to antiandrogen bicalutamide (Bic) (FIG. 2.9). Compound 673 is effective against the LNCaP stably transfected with GATA2-expressing plasmid (referred to as LNCaP-GATA2 cells) (FIG. 2.8).

[8] = system: androgen receptor (AR) signaling in C4-2B prostate cancer cells; experiment: Western blot, AR signaling in C4-2B cells; type: cell-based
[9] = system: PSA-luc reporter in LNCaP-GATA2 cells; experiment: PSA-luc reporter assay in LNCaP-GATA2 cells, combination with bicalutamide; type: cell-based; conditions: equi-molar combination, 72 hours, FBS medium
Experimental: as §2

[10] = system: GATA2 expression in C4-2B cells; experiment: Western blot, GATA2 expression in C4-2B cells; type: cell-based
GATA = conditions: read-out: IC50 in reporter assay; cited from earlier work

T1 sequence (P23771 whole entry): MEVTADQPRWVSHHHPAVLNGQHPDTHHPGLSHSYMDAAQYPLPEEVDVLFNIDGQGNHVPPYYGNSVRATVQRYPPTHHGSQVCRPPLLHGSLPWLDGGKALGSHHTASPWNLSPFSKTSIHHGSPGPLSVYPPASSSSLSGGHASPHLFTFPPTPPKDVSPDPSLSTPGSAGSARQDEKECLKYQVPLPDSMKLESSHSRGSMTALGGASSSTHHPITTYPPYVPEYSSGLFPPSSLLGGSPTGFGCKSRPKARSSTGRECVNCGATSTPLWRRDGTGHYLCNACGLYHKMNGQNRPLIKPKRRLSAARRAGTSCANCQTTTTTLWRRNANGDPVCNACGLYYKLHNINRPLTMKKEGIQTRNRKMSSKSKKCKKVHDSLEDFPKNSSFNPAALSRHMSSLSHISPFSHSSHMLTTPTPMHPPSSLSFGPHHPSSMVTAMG
T2 sequence (Q86WV6 whole entry H232R): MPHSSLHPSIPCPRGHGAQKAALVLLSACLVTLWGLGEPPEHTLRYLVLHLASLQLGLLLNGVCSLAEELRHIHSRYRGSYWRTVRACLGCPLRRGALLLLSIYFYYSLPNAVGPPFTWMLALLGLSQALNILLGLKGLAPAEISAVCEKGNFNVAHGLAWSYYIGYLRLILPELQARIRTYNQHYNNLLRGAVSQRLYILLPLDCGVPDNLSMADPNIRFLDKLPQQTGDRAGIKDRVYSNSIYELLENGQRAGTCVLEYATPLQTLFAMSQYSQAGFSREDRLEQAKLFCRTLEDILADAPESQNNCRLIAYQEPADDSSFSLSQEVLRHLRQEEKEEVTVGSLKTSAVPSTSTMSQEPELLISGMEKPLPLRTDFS
T3 sequence (Q14653 whole entry, species assumed): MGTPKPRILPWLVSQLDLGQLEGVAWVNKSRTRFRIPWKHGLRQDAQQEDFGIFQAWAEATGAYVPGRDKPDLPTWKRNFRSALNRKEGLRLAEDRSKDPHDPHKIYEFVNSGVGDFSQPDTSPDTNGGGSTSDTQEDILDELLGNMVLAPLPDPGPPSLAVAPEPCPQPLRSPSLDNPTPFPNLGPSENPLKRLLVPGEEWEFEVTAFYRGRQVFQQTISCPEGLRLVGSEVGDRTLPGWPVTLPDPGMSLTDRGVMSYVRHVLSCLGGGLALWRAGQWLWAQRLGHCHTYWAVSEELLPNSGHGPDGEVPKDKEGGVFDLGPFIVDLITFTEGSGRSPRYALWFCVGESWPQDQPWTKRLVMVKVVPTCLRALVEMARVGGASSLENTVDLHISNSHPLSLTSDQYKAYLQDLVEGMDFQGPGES

SMILES	activity against GATA3 in GATA3-dependent reporter assay (human GATA3; 10 μM)	activity against GATA3 in GATA3-dependent reporter assay (human GATA3; compounds at 5 μM)	cytotoxicity in H23 cells (MTT) [1]	activity against fusion protein IRF3DBD-GATA2NTD (ISRE-luc) [2]	activation of hSTING in ISRE-luc reporter assay (human STING (hSTING))	activity against wild-type IRF3 (ISRE-luc) (wild-type IRF3)	effect of combination with bicalutamide (BIC) in BrdU cell proliferation assay (LNCaP-GATA2 cells)	GATA2 inhibition in GATA2-dependent reporter assay (human GATA2)	cytotoxicity in A549 cells (MTT) [3]	suppression of AR signaling in LNCaP-GATA2 and CRPC cells (WB) [4]	ERG inhibition in ERG-dependent reporter assay (ERG)	selectivity for GATA2 among GATA family members [5]	cytotoxicity in H322 cells (MTT) [6]	dose-dependent binding to amine-coupled GATA2 (SPR) ([7]; 0-50 μM, 2-fold dilution series)	binding to amine-coupled GATA2 (SPR) ([7]; 50 μM each)	suppression of androgen receptor (AR) signaling (Western blot) [8]	effect of combination with bicalutamide (BIC) in PSA-luc reporter assay [9]	inhibition of GATA2 expression (Western blot) [10]	pIC50 (GATA)
Fc1cccc(-c2nc(CCCc3c[nH]c4ccccc34)oc2-c2cccc(F)c2)c1 [Compound 673]	inactive against GATA3	inactive against GATA3	cytotoxic	active	activate hSTING	inactive	Synergistic effect	GATA2 inhibitors	cytotoxic	suppresses the AR signalling in CRPC cells; also recorded: effective in suppressing AR signaling	ERG inhibitors	selectively inhibits GATA2	not toxic	Specific and dose-dependent binding	Direct binding; also recorded: Specific binding	potently inhibits the AR signaling; also recorded: suppresses the androgen receptor (AR) signaling	Synergistic effect	inhibits GATA2 expression	
COc1cc(/C=C/CCCN2CCCN(CCC/C=C/c3cc(OC)c(OC)c(OC)c3)CC2)cc(OC)c1OC [Compound K7174, K7174, reference compound]		active against GATA3										not selective							~4.82
